US9572788B2, “Cell permeable inhibitors of anaphase promoting complex” (President and Fellows of Harvard College, priority 2014, dated 2017)

Legend:
Format in all cases: cell-based, human
HeLa H2B-RFP cells = experiment: Exogenous cyclin-GFP expression, live-cell imaging and quantitation; conditions: Fig 5D; GFP at 60 min vs onset of mitosis; 20 μM proTAME or proAAME, 150 nM nocodazole
Method: HeLa H2B-RFP cells were transduced with cyclin B1-GFP or cyclin A2-GFP adenovirus for 40 h. Phenol Red-Free DMEM (Mediatech) supplemented with 10% FBS and 1:100 Penicillin-Streptomycin-Glutamine (Mediatech) was used as imaging medium. 20 μM proAAME, 20 μM proTAME or 150 nM nocodazole was added 45 min prior to the start of imaging. Live cell imaging was set up as described above except that the cells were plated in an 8-well chambered coverglasses (NUNC Lab-tek 155411). Four positions per treatment group were imaged with DIC transmitted light, red fluorescence, and green fluorescence (Semrock GFP/HcRed “Pinkel” filter set) at 12 min intervals for 24 h. Stacks of red and green fluorescence were merged, saved as AVI video files and analyzed using ImageJ. For quantitation, the first GFP-positive cells that undergo mitosis in three separate movies were chosen, giving at least 30 cells quantitated for each treatment group. Mean intensity values for the green channel were collected for a cytoplasmic region of a cell upon mitotic entry, mitotic exit, or after 1 h of mitotic arrest. At the same time points, background mean green intensity was determined and individually subtracted from the cytoplasmic mean intensity. This background corrected mean intensity value was then used to determine the percentage of the original GFP signal remaining at the completion of division (for the control cells) or after 1 h of mitotic arrest (for the nocodazole and proTAME treated cells). The average values for all quantitated cells were plotted with the error bars representing standard error of the mean.

HeLa H2B-GFP cells = experiment: Chromosome congression analysis; conditions: for Congression delay: 10 nM nocodazole or 12 μM proTAME; for Average chromosome congression time / Median chromosome congression time: Fig S4C
Method: HeLa H2B-GFP cells were plated in 35 mm glass-bottom dishes (MatTek) in DMEM+10% FBS at 20% confluence one day prior to the experiment and synchronized by double thymidine block as described above. Drugs were added as follows to a final volume of 3 ml from 2× concentrated preparation in culture medium. DMSO (0.06%), proTAME (3 and 12 μM) or 10 nM Nocodazole were added 8 h after release from the second block, while MG132 (10 μM) was added at 10 h. H2B-GFP was imaged for 4 hrs every 3 min at 40× magnification as described above.

HeLa cells = experiment: Immunofluorescence of mitotic spindle and interkinetochore distance; design: Median inter-kinetochore distance / Average inter-kinetochore distance: unit not given here; conditions: for Effect on mitotic spindle: asynchronous HeLa, 2 h, 12 μM proTAME, nocodazole or taxol
Method: HeLa cells grown in DMEM+10% FBS were plated on 25 mm glass coverslips in a E-well dish at a density of 130,000/ml×3 ml 48 h prior to treatment. They were then treated with 0.06% DMSO, 12 μM proTAME, 300 nM nocodazole or 300 nM taxol for 2 h. The cells were washed twice with PBS and fixed with 3% paraformaldehyde for 15 min. The cells were then washed with PBS and permeabilized with PBS plus 0.5% Triton X-100 for 2 min. The cells were then washed with PBS and blocked with PBS plus 5% FBS for 1 h. CREST antisera diluted 1:50 into PBS was added to the cells and incubated at room temperature for 1 h. The cells were washed with PBS and incubated with 1:1000 anti-human-Alexa 568 (Invitrogen, A21090) and 1:100 anti-α-tubulin-FITC for 1 h. The cells were then washed with PBS and the nuclei were stained with 1 μg/ml Hoechst 33342. The cover slips were mounted in 0.1M N-propylgallate in 9:1 glycerol:PBS. Z-series images were taken on a Nikon TE2000 microscope with PerkinElmer spinning disk confocal device. Maximal Z-projection images of individual cells were made by Image J. To measure interkinetochore distances, a straight line was drawn across a kinetochore pair in the same confocal plane and pixel intensities along the line were plotted so that each kinetochore would be represented by a peak on the line. The interkinetochore distance was calculated as the distance between the peaks. Fifty-five kinetochore pairs from 5 cells treated with DMSO or proTAME were measured and the p-value was calculated with a paired student test.

[1] = proTAME 12 μM, MG132 10 μM, nocodazole 10 nM

Structure (SMILES) | Average cyclin A2-GFP (fraction remaining) (HeLa H2B-RFP cells) | Average cyclin B1-GFP (fraction remaining) (HeLa H2B-RFP cells) | Median cyclin A2-GFP (fraction remaining) (HeLa H2B-RFP cells) | Median cyclin B1-GFP (fraction remaining) (HeLa H2B-RFP cells) | Congression delay (HeLa H2B-GFP cells) [min] | Average chromosome congression time (HeLa H2B-GFP cells; [1]) [min] | Median chromosome congression time (HeLa H2B-GFP cells; [1]) [min] | Effect on mitotic spindle (HeLa cells) | Delay in chromosome congression (HeLa H2B-GFP cells; 3 μM proTAME or 10 μM MG132) | Time to achieve metaphase, average (HeLa H2B-GFP cells; Example 2, 12 (μM) proTAME, 15 minutes for DMSO) [min] | Average chromosome congression time (HeLa H2B-GFP cells; proTAME 3 μM) [min] | Median chromosome congression time (HeLa H2B-GFP cells; proTAME 3 μM) [min] | Average inter-kinetochore distance (HeLa cells; Fig 5E, 12 μM proTAME for 2 h) | Median inter-kinetochore distance (HeLa cells; Fig 5E, 12 μM proTAME for 2 h)
COC(=O)Nc1nc2ccc(C(=O)c3cccs3)cc2[nH]1 [Nocodazole, reference compound] | 0.28 | 0.87 | 0.28 | 0.83 | 6 | 26.2 | 24 | strongly perturbed spindle organization |  |  |  |  |  | 
COC(=O)[C@H](CCCN/C(=N\C(=O)OCOC(=O)Cc1ccccc1)NC(=O)OCOC(=O)Cc1ccccc1)NS(=O)(=O)c1ccc(C)cc1 [proTAME] | 0.99 | 1.17 | 0.95 | 1.17 | 6 | 26.0 | 24 | no measurable differences in mitotic spindle morphology or inter-kinetochore distance | caused no delay in chromosome congression | 40 | 21.7 | 21 | 1.26 | 1.28
